{"source": "patent US8607989B2", "about": "“Filter composites for drug detoxification” (Vascular Vision Pharmaceutical Co., priority 2009, dated 2013)", "origin": "cited, not measured here", "system": "breast, colon, and gastric cancer; renal cell carcinoma; and sarcoma", "data": [{"compound": "O=C1[O][Pt]2([NH][C@@H]3CCCC[C@H]3[NH]2)[O]C1=O", "note": "[Oxaliplatin]", "values": [{"measurement": "activity in in vivo studies", "value": "active"}]}]}
